Test results reported in US12479895B2, “C-terminal CDNF and MANF fragments, pharmaceutical compositions comprising same and uses thereof” (MyNeuroCure Oy, priority 2018, dated 2025).

Key:
dopamine neurons = assay: Survival of TH-positive dopamine neurons in dissociated midbrain floor cultures; type: cell-based, mouse; details: for Fold change of survived neurons compared to neurons grown without growth factors: data of Table 3 divided by values of no factor
Protocol: To study the dopamine neurons (Yu et al., 2008; Yu and Arumae, 2008), the midbrain floors were dissected from the ventral mesencephali of 13.5-d-old NMRI strain mouse embryos. Tissues were incubated with 0.5% trypsin (ICN Biomedical), then mechanically dissociated using a large fire-polished Pasteur pipette. The neurons were grown on the poly-L-ornithine-coated (Sigma) 96-well culture plates in DMEM/F12 medium (Invitrogen) containing N2 supplement (Invitrogen) in the presence or absence of GDNF (100 ng/ml) or with CDNF, MANF, C-CDNF and C-MANF polypeptides at different concentrations for five days. Same amount of the neurons were plated to each well at the beginning of the experiments. The cultures without added neurotrophic factors served as the negative control. As the midbrain cultures contain several neuronal types, the cultures were fixed and immunostained with the antibodies to tyrosine hydroxylase (TH) (Millipore), a specific marker for the dopaminergic neurons. Images of each well were scanned by CellInsight™ and immunopositive neurons were counted by CellProfiler and CellProfiler analyst software. Data are expressed as a percentage of GDNF-maintained TH-positive neurons. All experiments were repeated at least three times on the independent cultures. The results were expressed as the mean the SEM and were tested for the significance by either one-way ANOVA and Tukey's post hoc test or by two-tailed Student's t-test. The null hypothesis was rejected at P≤0.05.

ER stressed SCG neurons = assay: Survival of tunicamycin-treated (ER stressed) SCG sympathetic neurons after microinjection; type: cell-based, mice; details: for survived neurons as % compared to neurons grown in the presence of NGF: microinjected into cytoplasm, CDNF (400); for Fold change of survived neurons compared to neurons injected with PBS: data of Table 1 divided by values of PBS
Protocol: Non-neuronal cells were removed by extensive preplating. Almost pure neurons were cultured in polyornithine/laminin (Sigma)-coated 35-mm plastic dishes in the small-size standard microislands in the Neurobasal medium and B27 supplement (Invitrogen/Gibco) in the presence of 30 ng/ml mouse nerve growth factor (NGF) (Promega) for 5-6 days. NGF was deprived by extensive washing and addition of the function-blocking anti-NGF antibodies (Roche). The neurons were pressure-microinjected with special neuronal microinjection equipment (Hellman et al., 2011; Hamner et al., 2001; Lindholm et al., 2002; Sun et al., 2001; Yu et al., 2003)(Sun et al., 2001; Sun et al., 2003). For the survival assay, all neurons on the microislands were counted in the beginning (initial number) and the end (three days) of the experiment and expressed as % of initial.
Microinjection of the sympathetic neurons was performed as described earlier (Yu, L. Y., Jokitalo, E., Sun, Y. F., Mehlen, P., Lindholm, D., Saarma, M., and Arumae, U. (2003) J Cell Biol. 163, 987-997). Plasmids for CDNF have been described earlier. Briefly, newborn mouse SCG neurons were grown with NGF (Promega) for 5-6 days then the nuclei were microinjected with the expression plasmids for full-length (FL)-CDNF and C-CDNF together with a reporter plasmid for enhanced green fluorescent protein (EGFP), using vector concentration of 10 ng/ul in each experiment. […] For protein microinjection, recombinant full length (FL)-CDNF, C-CDNF proteins in PBS at 200 ng/ul were microinjected directly into the cytoplasm together with fluorescent reporter Dextran Texas Red (MW 70000 Da) (Invitrogen, Molecular Probes) that facilitates identification of the successfully injected neurons. Next day tunicamycin (2 μM) was added, and after 3 days the living fluorescent neurons were counted. Living fluorescent (EGFP-expressing or Dextran Texas Red-containing) neurons were “blindly” counted three days later and expressed as percent of initial living fluorescent neurons counted 2-3 hours after microinjection. The experiments with plasmids were repeated on independent cultures 5 times for plasmid experiment, whereas four independent protein injection experiments were performed. On average, 50-80 neurons were successfully injected per experimental group. The results were expressed as the mean±the SEM. Data of each experimental group was compared with control plasmid PCR3.1 (vector) or PBS (in the protein injection experiments) by one-way ANOVA and post hoc Dunnett's t test. The null hypothesis was rejected at p<0.05.

## KYEKTLDLASVDLRKMRVAELKQILHSWGEECRACAEKTDYVNLIQELAPKYA (listed as Homo sapiens) [pep3]
Dopamine neurons; Table 3A (FIG. 15), AVG, 1 ng/ml, 5 days
  survived neurons as % compared to neurons grown in the presence of GDNF: 66.40 % GDNF
Dopamine neurons; Table 3A (FIG. 15), AVG, 10 ng/ml, 5 days
  survived neurons as % compared to neurons grown in the presence of GDNF: 73.60 % GDNF
Dopamine neurons; Table 3A (FIG. 15), AVG, 100 ng/ml, 5 days
  survived neurons as % compared to neurons grown in the presence of GDNF: 74.14 % GDNF
Dopamine neurons; Table 3A (FIG. 15), AVG, 1000 ng/ml, 5 days
  survived neurons as % compared to neurons grown in the presence of GDNF: 81.99 % GDNF
Dopamine neurons; Table 3A (FIG. 15), exp1, 1 ng/ml, 5 days
  survived neurons as % compared to neurons grown in the presence of GDNF: 73.87 % GDNF
Dopamine neurons; Table 3A (FIG. 15), exp1, 10 ng/ml, 5 days
  survived neurons as % compared to neurons grown in the presence of GDNF: 74.30 % GDNF
Dopamine neurons; Table 3A (FIG. 15), exp1, 100 ng/ml, 5 days
  survived neurons as % compared to neurons grown in the presence of GDNF: 85.15 % GDNF
Dopamine neurons; Table 3A (FIG. 15), exp1, 1000 ng/ml, 5 days
  survived neurons as % compared to neurons grown in the presence of GDNF: 84.53 % GDNF
Dopamine neurons; Table 3A (FIG. 15), exp2, 1 ng/ml, 5 days
  survived neurons as % compared to neurons grown in the presence of GDNF: 62.76 % GDNF
Dopamine neurons; Table 3A (FIG. 15), exp2, 10 ng/ml, 5 days
  survived neurons as % compared to neurons grown in the presence of GDNF: 64.35 % GDNF
Dopamine neurons; Table 3A (FIG. 15), exp2, 100 ng/ml, 5 days
  survived neurons as % compared to neurons grown in the presence of GDNF: 58.79 % GDNF
Dopamine neurons; Table 3A (FIG. 15), exp2, 1000 ng/ml, 5 days
  survived neurons as % compared to neurons grown in the presence of GDNF: 80.59 % GDNF
Dopamine neurons; Table 3A (FIG. 15), exp3, 1 ng/ml, 5 days
  survived neurons as % compared to neurons grown in the presence of GDNF: 62.58 % GDNF
Dopamine neurons; Table 3A (FIG. 15), exp3, 10 ng/ml, 5 days
  survived neurons as % compared to neurons grown in the presence of GDNF: 82.16 % GDNF
Dopamine neurons; Table 3A (FIG. 15), exp3, 100 ng/ml, 5 days
  survived neurons as % compared to neurons grown in the presence of GDNF: 78.46 % GDNF
Dopamine neurons; Table 3A (FIG. 15), exp3, 1000 ng/ml, 5 days
  survived neurons as % compared to neurons grown in the presence of GDNF: 80.86 % GDNF
Dopamine neurons; Table 4, AVG, 1 ng/ml
  Fold change of survived neurons compared to neurons grown without growth factors: 1.08 fold
Dopamine neurons; Table 4, AVG, 10 ng/ml
  Fold change of survived neurons compared to neurons grown without growth factors: 1.20 fold
Dopamine neurons; Table 4, AVG, 100 ng/ml
  Fold change of survived neurons compared to neurons grown without growth factors: 1.21 fold
Dopamine neurons; Table 4, AVG, 1000 ng/ml
  Fold change of survived neurons compared to neurons grown without growth factors: 1.34 fold
Dopamine neurons; Table 4, exp1, 1 ng/ml
  Fold change of survived neurons compared to neurons grown without growth factors: 1.29 fold
Dopamine neurons; Table 4, exp1, 10 ng/ml
  Fold change of survived neurons compared to neurons grown without growth factors: 1.30 fold
Dopamine neurons; Table 4, exp1, 100 ng/ml
  Fold change of survived neurons compared to neurons grown without growth factors: 1.49 fold
Dopamine neurons; Table 4, exp1, 1000 ng/ml
  Fold change of survived neurons compared to neurons grown without growth factors: 1.48 fold
Dopamine neurons; Table 4, exp2, 1 ng/ml
  Fold change of survived neurons compared to neurons grown without growth factors: 1.00 fold
Dopamine neurons; Table 4, exp2, 10 ng/ml
  Fold change of survived neurons compared to neurons grown without growth factors: 1.02 fold
Dopamine neurons; Table 4, exp2, 100 ng/ml
  Fold change of survived neurons compared to neurons grown without growth factors: 0.93 fold
Dopamine neurons; Table 4, exp2, 1000 ng/ml
  Fold change of survived neurons compared to neurons grown without growth factors: 1.28 fold
Dopamine neurons; Table 4, exp3, 1 ng/ml
  Fold change of survived neurons compared to neurons grown without growth factors: 0.97 fold
Dopamine neurons; Table 4, exp3, 10 ng/ml
  Fold change of survived neurons compared to neurons grown without growth factors: 1.27 fold
Dopamine neurons; Table 4, exp3, 100 ng/ml
  Fold change of survived neurons compared to neurons grown without growth factors: 1.21 fold
Dopamine neurons; Table 4, exp3, 1000 ng/ml
  Fold change of survived neurons compared to neurons grown without growth factors: 1.25 fold
ER stressed SCG neurons; Table 1A (FIG. 14), AVG of exp1-2, tunicamycin 2 μM
  survived neurons as % compared to neurons grown in the presence of NGF: 85.46 % NGF
ER stressed SCG neurons; Table 1A (FIG. 14), exp1, tunicamycin 2 μM, counted after 3 days
  survived neurons as % compared to neurons grown in the presence of NGF: 83.08 % NGF
ER stressed SCG neurons; Table 1A (FIG. 14), exp2, tunicamycin 2 μM, counted after 3 days
  survived neurons as % compared to neurons grown in the presence of NGF: 87.84 % NGF
ER stressed SCG neurons; Table 2, AVG
  Fold change of survived neurons compared to neurons injected with PBS: 2.32 Fold to PBS
ER stressed SCG neurons; Table 2, exp1
  Fold change of survived neurons compared to neurons injected with PBS: 2.42 Fold to PBS
ER stressed SCG neurons; Table 2, exp2
  Fold change of survived neurons compared to neurons injected with PBS: 2.21 Fold to PBS

## RVAELKQILHSWGEECRACAEKTDYVNLIQELAPKYA (listed as Homo sapiens) [pep8]
Dopamine neurons; Table 3B (FIG. 17), AVG, 1 ng/ml, 5 days
  survived neurons as % compared to neurons grown in the presence of GDNF: 64.02 % GDNF
Dopamine neurons; Table 3B (FIG. 17), AVG, 10 ng/ml, 5 days
  survived neurons as % compared to neurons grown in the presence of GDNF: 75.69 % GDNF
Dopamine neurons; Table 3B (FIG. 17), AVG, 100 ng/ml, 5 days
  survived neurons as % compared to neurons grown in the presence of GDNF: 85.95 % GDNF
Dopamine neurons; Table 3B (FIG. 17), AVG, 1000 ng/ml, 5 days
  survived neurons as % compared to neurons grown in the presence of GDNF: 81.43 % GDNF
Dopamine neurons; added to the culture medium, 5 days, TH-positive neurons counted
  protection of dopaminergic neurons in culture (result in words): best protective effect
ER stressed SCG neurons; Table 1B (FIG. 16), exp1, tunicamycin 2 μM, counted after 3 days
  survived neurons as % compared to neurons grown in the presence of NGF: 77.94 % NGF
ER stressed SCG neurons; Table 1B (FIG. 16), exp2, tunicamycin 2 μM, counted after 3 days
  survived neurons as % compared to neurons grown in the presence of NGF: 65.57 % NGF
ER stressed SCG neurons; Table 1B (FIG. 16), exp3, tunicamycin 2 μM, counted after 3 days
  survived neurons as % compared to neurons grown in the presence of NGF: 73.91 % NGF
ER stressed SCG neurons; protein or peptide microinjected into the cytoplasm, tunicamycin 2 μM, living fluorescent neurons counted after 3 days
  rescue of ER stressed SCG neurons (result in words): rescue
